Tested on: Staphylococcus aureus (ATCC 6538)
Assay: EPA Test antimicrobial efficacy (log kill) of films/coupons
Format: cell-based

CCOP(OCC)OCC.[Cu][I] [CuI(TEP), iodo(triethyl phosphite)copper(I)]
antimicrobial efficacy: essentially full kill

Reference: patent US12063933B1, “Antimicrobial compositions including copper(I) salts and additives” (CORNING INCORPORATED, priority 2023, dated 2024)
